Measurements from article PMC12337661, “PIEZO1 mechanical insensitivity in generalized lymphatic dysplasia with the potential for pharmacological rescue” (iScience, 2025).

Key:
Experiment in all cases: Intracellular Ca2+ measurement (fura-2), T-REx-293 cells stably transfected
Type in all cases: cell-based
E824V mPIEZO1 = biological target: T1, E824V mPIEZO1 (Mus musculus, UniProt E2JF22, E824V); conditions: normalized to the WT Yoda1 maximum response
T1 construct: expressed in transfected cells
T1 sequence (E2JF22 whole entry E824V): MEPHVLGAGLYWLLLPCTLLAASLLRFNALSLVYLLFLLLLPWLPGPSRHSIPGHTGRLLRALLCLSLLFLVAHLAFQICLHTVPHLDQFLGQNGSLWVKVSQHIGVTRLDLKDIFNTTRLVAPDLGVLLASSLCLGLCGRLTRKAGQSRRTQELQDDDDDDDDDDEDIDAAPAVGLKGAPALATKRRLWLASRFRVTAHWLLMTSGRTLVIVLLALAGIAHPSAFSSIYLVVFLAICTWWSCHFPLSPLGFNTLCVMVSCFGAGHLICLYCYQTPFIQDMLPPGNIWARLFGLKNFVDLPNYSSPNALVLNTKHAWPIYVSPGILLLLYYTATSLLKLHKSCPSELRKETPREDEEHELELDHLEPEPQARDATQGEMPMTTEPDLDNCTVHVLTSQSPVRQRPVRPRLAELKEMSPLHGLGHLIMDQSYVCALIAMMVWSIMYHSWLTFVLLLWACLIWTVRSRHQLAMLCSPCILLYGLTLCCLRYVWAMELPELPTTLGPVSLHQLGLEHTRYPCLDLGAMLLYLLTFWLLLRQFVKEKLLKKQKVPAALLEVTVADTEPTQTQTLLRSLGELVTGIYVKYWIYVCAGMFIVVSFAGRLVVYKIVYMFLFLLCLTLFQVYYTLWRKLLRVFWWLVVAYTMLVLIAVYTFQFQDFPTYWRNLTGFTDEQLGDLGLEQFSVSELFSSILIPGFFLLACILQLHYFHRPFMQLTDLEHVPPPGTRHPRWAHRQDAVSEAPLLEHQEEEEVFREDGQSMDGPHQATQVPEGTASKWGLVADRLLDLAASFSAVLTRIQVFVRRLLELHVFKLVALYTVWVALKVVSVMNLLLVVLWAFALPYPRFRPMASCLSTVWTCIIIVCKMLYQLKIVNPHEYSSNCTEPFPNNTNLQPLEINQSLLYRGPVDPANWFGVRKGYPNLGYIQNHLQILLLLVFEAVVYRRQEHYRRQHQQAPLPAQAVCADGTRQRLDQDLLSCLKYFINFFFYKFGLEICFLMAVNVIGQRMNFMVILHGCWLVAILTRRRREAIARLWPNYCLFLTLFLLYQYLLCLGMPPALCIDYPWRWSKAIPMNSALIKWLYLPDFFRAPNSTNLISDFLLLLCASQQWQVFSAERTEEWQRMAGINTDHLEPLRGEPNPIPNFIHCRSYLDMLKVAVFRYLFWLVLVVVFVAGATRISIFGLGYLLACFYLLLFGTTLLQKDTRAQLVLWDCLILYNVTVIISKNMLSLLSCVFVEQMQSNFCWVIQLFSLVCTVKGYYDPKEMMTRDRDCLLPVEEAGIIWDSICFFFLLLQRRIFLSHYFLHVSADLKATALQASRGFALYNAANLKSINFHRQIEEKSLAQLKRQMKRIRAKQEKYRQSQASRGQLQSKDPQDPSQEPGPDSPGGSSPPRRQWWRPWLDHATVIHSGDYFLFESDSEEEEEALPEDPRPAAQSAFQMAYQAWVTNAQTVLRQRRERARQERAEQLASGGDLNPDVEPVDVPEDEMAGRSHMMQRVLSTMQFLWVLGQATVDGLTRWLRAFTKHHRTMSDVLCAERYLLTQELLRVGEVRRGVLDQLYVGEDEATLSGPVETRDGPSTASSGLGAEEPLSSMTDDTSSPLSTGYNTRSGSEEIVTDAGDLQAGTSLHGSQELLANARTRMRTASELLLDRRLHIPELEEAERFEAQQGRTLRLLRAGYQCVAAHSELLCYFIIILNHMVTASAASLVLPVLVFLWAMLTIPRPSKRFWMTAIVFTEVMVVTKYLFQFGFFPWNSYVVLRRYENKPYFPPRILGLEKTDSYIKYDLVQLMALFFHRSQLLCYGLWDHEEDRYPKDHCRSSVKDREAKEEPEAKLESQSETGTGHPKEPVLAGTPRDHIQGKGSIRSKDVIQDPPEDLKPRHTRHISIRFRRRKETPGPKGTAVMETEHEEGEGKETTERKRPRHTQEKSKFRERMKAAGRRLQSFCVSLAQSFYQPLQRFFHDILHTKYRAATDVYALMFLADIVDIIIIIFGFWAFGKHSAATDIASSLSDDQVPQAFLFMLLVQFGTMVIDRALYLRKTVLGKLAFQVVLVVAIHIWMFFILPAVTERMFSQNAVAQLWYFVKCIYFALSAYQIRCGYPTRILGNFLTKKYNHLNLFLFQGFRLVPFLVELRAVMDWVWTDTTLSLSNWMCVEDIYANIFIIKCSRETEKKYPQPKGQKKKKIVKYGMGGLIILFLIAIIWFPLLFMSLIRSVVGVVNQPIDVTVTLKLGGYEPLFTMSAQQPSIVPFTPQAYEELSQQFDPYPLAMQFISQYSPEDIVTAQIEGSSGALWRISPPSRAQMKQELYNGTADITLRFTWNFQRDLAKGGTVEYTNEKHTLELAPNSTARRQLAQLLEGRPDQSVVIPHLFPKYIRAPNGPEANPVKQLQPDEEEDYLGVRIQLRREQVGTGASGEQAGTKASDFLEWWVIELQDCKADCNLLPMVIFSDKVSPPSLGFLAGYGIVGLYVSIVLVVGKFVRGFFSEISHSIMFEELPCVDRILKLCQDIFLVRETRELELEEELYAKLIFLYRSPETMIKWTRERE
Method: (§1) T-REx-293 cell line was transfected with pcDNA4/TO-mPIEZO1 constructs using Lipofectamine 2000 (Invitrogen) as above and treated with 200 μg.mL^−1 zeocin (InvivoGen) to select for stably transfected cells. At least two strongly expressing clonal cell lines were established and tested for each variant. All cell lines were maintained in Dulbecco’s Modified Eagle’s medium (Invitrogen) supplemented with 10% heat-inactivated fetal calf serum (Sigma-Aldrich), penicillin (50 units.mL^−1) and streptomycin (0.5 mg.mL^−1) (Sigma-Aldrich) and grown at 37°C in a humidified 5% CO2 incubator.
(§2) For intracellular Ca^2+ assays, cells were plated at 80–90% confluence in 96-well plates 24 h prior to recordings (6–8 × 10^4 cells per well). […] Cells were washed with SBS and incubated at room temperature for 20 min prior to recordings. Equal volumes of 2x concentrated compounds were injected to test for acute channel activation. Pre-incubation with compounds occurred during the 20 min prior to recordings. To expose cell membranes to hypo-osmolality, an equal volume of hypotonic SBS (containing only 35 mM NaCl) was injected onto the cells. Measurements were made on a fluorescence plate reader (Flexstation III, Molecular Devices) at room temperature (21 ± 2°C). Fura-2 was excited at 340 nm and 380 nm and emitted light collected at 510 nm, with measurements shown as the change in fluorescence (F) ratio (ΔF340/380).
(§3) KC41 (Dooku1) was prepared as described.[28] All purchased chemicals and solvents were used without further purification unless otherwise stated. All compounds were at least 95% pure by 1H NMR. 1H Nuclear Magnetic Resonance spectra were recorded at 500 MHz using a Bruker DRX 500 instrument or at 400 MHz using a Bruker DPX 400. 1H spectra are referenced based on the residual proton in the solvent (e.g., the CHCl3, 0.01% in 99.99% CDCl3). Coupling constants (J) are reported to the nearest 0.1 Hz. 13C NMR spectra were recorded at 125 MHz on 500 MHz spectrometers or at 100 MHz on 400 MHz spectrometers. LC-MS was performed on a Bruker Daltronics running a gradient of increasing acetonitrile (5–95%) in H2O both containing 0.1% formic acid at 1 mL.min^−1, on a short path C18 reverse phase column, detecting compounds with both a diode array detector and a Bruker mass spectrum analyser. HRMS was performed on a Bruker Daltonics micrOTOF using positive electrospray ionisation (ES+). Automated column chromatograph was carried out using a Biotage Isolera Four, using either Sfär Silica D or KP-Silica cartridges. HPLC was performed on an Agilent 1290 Infinity Series equipped with a UV detector and Hyperprep C18 reverse phase column. Key to NMR abbreviations: s (singlet), br s (broad singlet) d (doublet), dd (doublet of doublets), ddd (doublet of doublets of doublets), t (triplet), dt (doublet of triples), q (quartet), m (multiplet), ap. t (apparent triplet). For experiments, Yoda1 and its analogues were prepared as 10 mM stock solutions in 100% dimethyl sulfoxide (DMSO) before serial dilution in DMSO and final dilution in aqueous solution. Cells were exposed to 0.1% DMSO for all concentrations of the compounds from 0 to 10 μM.

G1994D mPIEZO1 = biological target: T2, G1994D mPIEZO1 (Mus musculus, UniProt E2JF22, G1994D); conditions: for Mean (concentration-response, Figure 5g): G1994D
T2 construct: expressed in transfected cells
T2 sequence (E2JF22 whole entry G1994D): as the sequence (E2JF22 whole entry E824V) above, with V824E, G1994D counted along it
Method: as §1, §2, §3

I2286T mPIEZO1 = biological target: T3, I2286T mPIEZO1 (Mus musculus, UniProt E2JF22, I2286T)
T3 construct: expressed in transfected cells
T3 sequence (E2JF22 whole entry I2286T): as the sequence (E2JF22 whole entry E824V) above, with V824E, I2286T counted along it
Method: as §1, §2, §3

WT mPIEZO1 = biological target: T4, WT mPIEZO1 (Mus musculus, UniProt E2JF22); conditions: 1.5 min exposure; fitted Hill equation
T4 construct: expressed in transfected cells
T4 sequence (E2JF22 whole entry): as the sequence (E2JF22 whole entry E824V) above, with V824E counted along it
Method: as §1, §2, §3

SMILES: O=C(O)c1ccc(-c2cnc(SCc3c(Cl)cccc3Cl)s2)cc1 [Yoda2b, 4-(2-([(2,6-Dichlorophenyl)methyl]sulfanyl)-1,3-thiazol-5-yl)benzoic acid]
- EC50 (E824V mPIEZO1): 0.76 µM
- EC50 (G1994D mPIEZO1; 1.5 min exposure): 1 µM
- Mean (concentration-response, Figure 5g) (G1994D mPIEZO1; Yoda2b concentration 0.01 µM): -0.02242
- Mean (concentration-response, Figure 5g) (G1994D mPIEZO1; Yoda2b concentration 0.03 µM): 0.00849
- Mean (concentration-response, Figure 5g) (G1994D mPIEZO1; Yoda2b concentration 0.1 µM): 0.01915
- Mean (concentration-response, Figure 5g) (G1994D mPIEZO1; Yoda2b concentration 0.3 µM): 0.1358
- Mean (concentration-response, Figure 5g) (G1994D mPIEZO1; Yoda2b concentration 1 µM): 0.5075
- Mean (concentration-response, Figure 5g) (G1994D mPIEZO1; Yoda2b concentration 3 µM): 0.8675
- Mean (concentration-response, Figure 5g) (G1994D mPIEZO1; Yoda2b concentration 10 µM): 1
- Mean (ΔFratio) (I2286T mPIEZO1; 0.3 µM, time 0 s): 0.00239
- Mean (ΔFratio) (I2286T mPIEZO1; 0.3 µM, time 5 s): -0.00843
- Mean (ΔFratio) (I2286T mPIEZO1; 0.3 µM, time 10 s): 0.00738
- Mean (ΔFratio) (I2286T mPIEZO1; 0.3 µM, time 15 s): -3.95E-05
- Mean (ΔFratio) (I2286T mPIEZO1; 0.3 µM, time 20 s): -9.74E-04
- Mean (ΔFratio) (I2286T mPIEZO1; 0.3 µM, time 25 s): -3.25E-04
- Mean (ΔFratio) (I2286T mPIEZO1; 0.3 µM, time 30 s): -0.07905
- Mean (ΔFratio) (I2286T mPIEZO1; 0.3 µM, time 35 s): -0.08536
- Mean (ΔFratio) (I2286T mPIEZO1; 0.3 µM, time 40 s): 0.2313
- Mean (ΔFratio) (I2286T mPIEZO1; 0.3 µM, time 45 s): 0.4546
- Mean (ΔFratio) (I2286T mPIEZO1; 0.3 µM, time 50 s): 0.5954
- Mean (ΔFratio) (I2286T mPIEZO1; 0.3 µM, time 55 s): 0.6989
- Mean (ΔFratio) (I2286T mPIEZO1; 0.3 µM, time 60 s): 0.7448
- Mean (ΔFratio) (I2286T mPIEZO1; 0.3 µM, time 65 s): 0.7353
- Mean (ΔFratio) (I2286T mPIEZO1; 0.3 µM, time 70 s): 0.7286
- Mean (ΔFratio) (I2286T mPIEZO1; 0.3 µM, time 75 s): 0.7236
- Mean (ΔFratio) (I2286T mPIEZO1; 0.3 µM, time 80 s): 0.681
- Mean (ΔFratio) (I2286T mPIEZO1; 0.3 µM, time 85 s): 0.6794
- Mean (ΔFratio) (I2286T mPIEZO1; 0.3 µM, time 90 s): 0.6567
- Mean (ΔFratio) (I2286T mPIEZO1; 0.3 µM, time 95 s): 0.6006
- Mean (ΔFratio) (I2286T mPIEZO1; 0.3 µM, time 100 s): 0.6101
- Mean (ΔFratio) (I2286T mPIEZO1; 0.3 µM, time 105 s): 0.603
- Mean (ΔFratio) (I2286T mPIEZO1; 0.3 µM, time 110 s): 0.5805
- Mean (ΔFratio) (I2286T mPIEZO1; 0.3 µM, time 115 s): 0.5587
- Mean (ΔFratio) (I2286T mPIEZO1; 0.3 µM, time 120 s): 0.5669
- Mean (ΔFratio) (I2286T mPIEZO1; 0.3 µM, time 125 s): 0.5131
- Mean (ΔFratio) (I2286T mPIEZO1; 0.3 µM, time 130 s): 0.5257
- Mean (ΔFratio) (I2286T mPIEZO1; 3 µM, time 0 s): -0.00226
- Mean (ΔFratio) (I2286T mPIEZO1; 3 µM, time 5 s): 0.01302
- Mean (ΔFratio) (I2286T mPIEZO1; 3 µM, time 10 s): -0.01316
- Mean (ΔFratio) (I2286T mPIEZO1; 3 µM, time 15 s): -0.00422
- Mean (ΔFratio) (I2286T mPIEZO1; 3 µM, time 20 s): 0.00798
- Mean (ΔFratio) (I2286T mPIEZO1; 3 µM, time 25 s): -0.00136
- Mean (ΔFratio) (I2286T mPIEZO1; 3 µM, time 30 s): -0.4575
- Mean (ΔFratio) (I2286T mPIEZO1; 3 µM, time 35 s): -0.0464
- Mean (ΔFratio) (I2286T mPIEZO1; 3 µM, time 40 s): 0.8681
- Mean (ΔFratio) (I2286T mPIEZO1; 3 µM, time 45 s): 1.381
- Mean (ΔFratio) (I2286T mPIEZO1; 3 µM, time 50 s): 1.657
- Mean (ΔFratio) (I2286T mPIEZO1; 3 µM, time 55 s): 1.797
- Mean (ΔFratio) (I2286T mPIEZO1; 3 µM, time 60 s): 1.789
- Mean (ΔFratio) (I2286T mPIEZO1; 3 µM, time 65 s): 1.7806
- Mean (ΔFratio) (I2286T mPIEZO1; 3 µM, time 70 s): 1.778
- Mean (ΔFratio) (I2286T mPIEZO1; 3 µM, time 75 s): 1.702
- Mean (ΔFratio) (I2286T mPIEZO1; 3 µM, time 80 s): 1.669
- Mean (ΔFratio) (I2286T mPIEZO1; 3 µM, time 85 s): 1.657
- Mean (ΔFratio) (I2286T mPIEZO1; 3 µM, time 90 s): 1.535
- Mean (ΔFratio) (I2286T mPIEZO1; 3 µM, time 95 s): 1.511
- Mean (ΔFratio) (I2286T mPIEZO1; 3 µM, time 100 s): 1.421
- Mean (ΔFratio) (I2286T mPIEZO1; 3 µM, time 105 s): 1.3863
- Mean (ΔFratio) (I2286T mPIEZO1; 3 µM, time 110 s): 1.364
- Mean (ΔFratio) (I2286T mPIEZO1; 3 µM, time 115 s): 1.304
- Mean (ΔFratio) (I2286T mPIEZO1; 3 µM, time 120 s): 1.27
- Mean (ΔFratio) (I2286T mPIEZO1; 3 µM, time 125 s): 1.258
- Mean (ΔFratio) (I2286T mPIEZO1; 3 µM, time 130 s): 1.2123
- EC50 (I2286T mPIEZO1; 1.5 min exposure): 0.71 µM
- Mean (concentration-response, Figure 3l) (I2286T mPIEZO1; 1.5 min exposure, 0.01 µM): 0.00606
- Mean (concentration-response, Figure 3l) (I2286T mPIEZO1; 1.5 min exposure, 0.03 µM): 0.01869
- Mean (concentration-response, Figure 3l) (I2286T mPIEZO1; 1.5 min exposure, 0.1 µM): 0.08252
- Mean (concentration-response, Figure 3l) (I2286T mPIEZO1; 1.5 min exposure, 0.3 µM): 0.2937
- Mean (concentration-response, Figure 3l) (I2286T mPIEZO1; 1.5 min exposure, 1 µM): 0.643
- Mean (concentration-response, Figure 3l) (I2286T mPIEZO1; 1.5 min exposure, 3 µM): 0.8962
- Mean (concentration-response, Figure 3l) (I2286T mPIEZO1; 1.5 min exposure, 10 µM): 1.056
- side-by-side comparison of channel activation with Yoda1 (I2286T mPIEZO1; same 96-well plate): more effective at activating I2286T channels than Yoda1
- EC50 (WT mPIEZO1): 0.14 µM
